Ends that are not written are not given here.

Assay type in all cases: in vivo, rat
The test system of assay [1] is male Sprague-Dawley rats. Briefly: Locomotor activity observations in open-field arena. To be noted: 1 mg/kg subcutaneously for five consecutive days, studied three days after end of treatment, vs saline control. The procedure:
(§1) Animals. Eight week-old male Sprague-Dawley rats (280-300 g) were obtained from B&K Universal AB, Sollentuna, Sweden.
(§2) Experimental procedure. SEQ ID NO: 5 was dissolved in physiological saline (1 mg/ml) and administered subcutaneously to six rats at a dose of 1 mg/kg for five consecutive days. Six rats received physiological saline only as a control. Two days after the last treatment, the rats were exposed to blood pressure determination with the cuff technique. The locomotor behaviour was studied three days after the end of the treatment. The next day the animals were decapitated and blood was collected.
(§3) Statistics. The results are presented as means ±SD. Statistical analysis was performed by means of 2-way ANOVA followed by Bonferroni's test for post hoc comparison. A Students t-test was performed. p-values of 0.05 or less were regarded as statistically significant.
Two identical frames of photocells were placed at two levels, 40 and 125 mm above the floor, respectively. The open-field was enclosed in a ventilated, sound-attenuating box with a Perspex top. Measurements were made in the dark and performed between 0.900-16.00 h.
The number of photocell beam interruptions were collected on an IBM-compatible PC computer allowing the registration of locomotor activity (all interruptions of photobeams at the lower level) and rearing (all interruptions of photobeams at the upper level). The data were subject to a square root transformation. For further details on the apparatus and the computer software used, including a schematic drawing of the equipment, see Ericson, E., Samuelsson, J., and Ahlenius, S. (1991). Photocell measurements of rat motor activity: A contribution to sensitivity and variation in behavioral observations. J Pharmacol Meth 25, 111-122. Furthermore, the peripheral activity was measured. By peripheral activity is meant that the animals are located in the corners of the arena. When the animals are frightened, they have a higher tendency to be located in the corners ie have a high peripheral activity. […]

Another assay relates to Oxytocin. Description: Plasma oxytocin determination by radioimmunoassay. Particulars: 1 mg/kg s.c. for five consecutive days, trunk blood four days after end of treatment, mean ± SD, in pmol/L. The procedure:
as §1, §2, §3
Trunk blood was collected in ice-chilled tubes, containing heparin (10 IU/ml) (Pharmacia-Upjohn, Stockholm, Sweden) and aprotinin (500 IU/ml) (Trasylol, Bayer, Germany). […]
Oxytocin was measured with a specific radioimmunoassay developed in this laboratory (Stock, S., and Uvnäs-Moberg, K. (1988). Increased plasma levels of oxytocin in response to stimulation of the sciatic and vagal nerves and in response to touch and pinch in anaesthetized rats. Acta Physiol Scand 132, 29-34.). […]

In a further assay the test system is Gastrin. Briefly: Plasma gastrin determination by immunoassay. To be noted: 1 mg/kg s.c. for five consecutive days, trunk blood four days after end of treatment, mean ± SD, in pmol/L. The procedure:
as §1, §2, §3
(§4) Trunk blood was collected in ice-chilled tubes, containing heparin (10 IU/ml) (Pharmacia-Upjohn, Stockholm, Sweden) and aprotinin (500 IU/ml) (Trasylol, Bayer, Germany). The blood samples were centrifuged and plasma was removed and frozen (−20° C.).
Gastrin was immunoassayed as described by Smedh, U., and Uvnäs-Moberg, K. (1994) Intracerebroventricularly administered corticotropin-releasing factor releases somatostatin through a colinergic, vagal pathway in freely fed rats. Acta Physiol Scand 151, 241-247. […]

The next assay relates to CCK. Briefly: Plasma cholecystokinin (CCK) determination by immunoassay. Particulars: 1 mg/kg s.c. for five consecutive days, trunk blood four days after end of treatment, mean ± SD, in pmol/L. On the procedure:
as §1, §2, §3, §4
CCK was immunoassayed as described by Smedh and Uvnäs Moberg, supra. Plasma samples were purified with reversed-phase chromatography using C18 Waters SEP PAK cartridges. […]

Assay [2] deals with male Sprague-Dawley rats. Briefly: Measurement of blood pressure with tail cuff on conscious animals. To be noted: 1 mg/kg s.c. for five consecutive days, two days after last treatment. The procedure:
as §1, §2, §3
Blood pressure and heart rate were measured on conscious animals by placing a cuff (Kent RTBP-002, Somedic Sales, Farsta, Sweden) on the base of the tail. The cuff was connected to a Grass 7P8 sphygmanometer and a Grass 7P8DC amplifier with a printer. The rats were habituated to the entire test procedure for 2-3 weeks before the procedure started.

Regarding “Cys-Pro-Leu-Gly-NH2 (CPLG-NH2) [SEQ ID NO: 5]”, in the assay with male Sprague-Dawley rats [1], the “amount of peripheral activity” value is “decreased”, the amount of rearing result is reported as “significantly decreased” and the locomotor activity entry is “significantly decreased”. The “Hormone levels in hormone treated rats (N = 6): Oxytocin” value in the assay on Oxytocin stood at 29.7 ± 7.2. Further, the “Hormone levels in hormone treated rats (N = 6): Gastrin” value with Gastrin came to 85 ± 19.3. Further, the “Hormone levels in hormone treated rats (N = 6): CCK” value in the assay with CCK was 8.4 ± 3.5. Besides, in the assay on male Sprague-Dawley rats [2] (mean ± SD), the “Diastolic blood pressure, value in hormone treated rats (N = 6)” value is reported as 87.3 ± 18.9 and the “Systolic blood pressure, value in hormone treated rats (N = 6)” value is 116 ± 9.1. Besides, the blood pressure result in the assay with male Sprague-Dawley rats [2] (vs saline control) is recorded as “significantly decreased”.

Source of the values: US7714105B2, “Use of fragments of oxytocin for the preparation of a pharmaceutical composition in order to create eustasis” (priority 2001, dated 2010).
